Consider 32 compounds from patent publication US20110082130A1 (LIGAND PHARMACEUTICALS, INC., priority 2006, published 2011).

Some results are limits rather than exact numbers.

One assay deals with T1, chimeric human H3 receptor (Homo sapiens, UniProt Q9Y5N1).
T1 construct: made in house; host or cells: Sf9 insect cells (baculovirus); P2 membrane preparation
T1 sequence (Q9Y5N1 with tags, fused parts or gaps): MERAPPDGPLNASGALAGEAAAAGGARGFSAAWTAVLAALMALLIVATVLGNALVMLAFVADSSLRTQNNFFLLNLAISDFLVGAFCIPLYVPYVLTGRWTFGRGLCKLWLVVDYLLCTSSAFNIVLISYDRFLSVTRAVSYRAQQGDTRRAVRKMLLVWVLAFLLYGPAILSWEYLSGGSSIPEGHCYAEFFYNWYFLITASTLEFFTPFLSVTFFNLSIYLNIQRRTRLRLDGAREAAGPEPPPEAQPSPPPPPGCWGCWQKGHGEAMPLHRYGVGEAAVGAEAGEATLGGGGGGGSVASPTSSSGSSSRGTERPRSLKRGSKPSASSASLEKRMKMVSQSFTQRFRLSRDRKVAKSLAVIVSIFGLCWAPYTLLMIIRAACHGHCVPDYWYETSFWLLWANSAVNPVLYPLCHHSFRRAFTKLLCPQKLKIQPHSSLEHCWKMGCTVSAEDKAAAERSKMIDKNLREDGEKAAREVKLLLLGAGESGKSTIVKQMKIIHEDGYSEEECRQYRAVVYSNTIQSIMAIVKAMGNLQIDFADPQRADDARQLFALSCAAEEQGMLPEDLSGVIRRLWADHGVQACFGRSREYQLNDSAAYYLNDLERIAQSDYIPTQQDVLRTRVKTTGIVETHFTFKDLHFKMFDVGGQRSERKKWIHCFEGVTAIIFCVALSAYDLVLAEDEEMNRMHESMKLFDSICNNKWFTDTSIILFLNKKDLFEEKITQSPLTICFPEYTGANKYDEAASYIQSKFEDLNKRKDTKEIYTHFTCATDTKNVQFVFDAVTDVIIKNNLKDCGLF
The assay can be described thus: Chimeric human H3 receptor screening GTP binding assay (inhibition of histamine-stimulated GTP-gamma35S binding, Example 8). The note with it: 4 μM of the compound, 1 μM histamine, "†" in Ki of Table II, read-out: percent inhibition of the signal obtained with 1 μM histamine. The class given is biochemical. The method in brief: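 Sf9 membranes co-expressing chimeric human H3 receptor and heterotrimeric G-protein, 35 μg per reaction, incubated 60 min at room temperature with 4 μM compound, 1 μM histamine, 10 μM GDP and […] GTP-gamma35S at pH 7.4. Filter-bound radioactivity counted. Result expressed as percent inhibition of the histamine signal after subtracting non-specific binding (10 μM GTP-gammaS).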
(GTPγS resists hydrolysis and so accumulates on activated G proteins.)
In the case of `O=C(CN1CCc2cc(-c3ccc(OC(F)(F)F)cc3)ccc2C1)N1CCN(C2CCC2)CC1` [Compound 478, 2-[2-(4-cyclobutylpiperazin-1-yl)-2-oxoethyl]-6-[4-(trifluoromethoxy)phenyl]-1,2,3,4-tetrahydroisoquinoline], the inhibition at 4 µM is not below 90%.
Same read-out and setting: the same measure for `O=C(CN1CCc2cc(-c3ccccc3)ccc2C1)N1CCN(C2CCC2)CC1` [Compound 398, 2-[2-(4-cyclobutylpiperazin-1-yl)-2-oxoethyl]-6-phenyl-1,2,3,4-tetrahydroisoquinoline]: not below 90%; for `CC(C)c1ccc(-c2ccc3c(c2)CCN(CC(=O)N2CCN(C4CCCCC4)CC2)C3)cc1` [Compound 445, 2-[2-(4-cyclohexylpiperazin-1-yl)-2-oxoethyl]-6-(4-isopropylphenyl)-1,2,3,4-tetrahydroisoquinoline]: not below 90%; for `Cc1cccc(-c2ccc3c(c2)CCN(CC(=O)N2CCN(C4CCCCC4)CC2)C3)c1` [Compound 434, 2-[2-(4-cyclohexylpiperazin-1-yl)-2-oxoethyl]-6-(3-methylphenyl)-1,2,3,4-tetrahydroisoquinoline]: not below 90%.
For `CC(C)c1cccc(-c2ccc3c(c2)CCN(CC(=O)N2CCN(C4CCCC4)CC2)C3)c1` [Compound 440, 2-[2-(4-cyclopentylpiperazin-1-yl)-2-oxoethyl]-6-(3-isopropylphenyl)-1,2,3,4-tetrahydroisoquinoline], the inhibition at 4 µM was not below 90%.
In the case of `Cc1ccc(-c2ccc3c(c2)CCN(CC(=O)N2CCN(C4CCCCC4)CC2)C3)cc1` [Compound 437, 2-[2-(4-cyclohexylpiperazin-1-yl)-2-oxoethyl]-6-(4-methylphenyl)-1,2,3,4-tetrahydroisoquinoline], the inhibition at 4 µM was not below 90%.
On the same count and under the same terms, with `CC(C)c1cccc(-c2ccc3c(c2)CCN(CC(=O)N2CCN(C(C)C)CC2)C3)c1` [Compound 442, 6-(3-isopropylphenyl)-2-[2-(4-isopropylpiperazin-1-yl)-2-oxoethyl]-1,2,3,4-tetrahydroisoquinoline] the figure was not below 90%; with `O=C(CN1CCc2cc(-c3ccc4ccccc4c3)ccc2C1)N1CCN(C2CCCC2)CC1` [Compound 417, 2-[2-(4-cyclopentylpiperazin-1-yl)-2-oxoethyl]-6-(2-naphthyl)-1,2,3,4-tetrahydroisoquinoline], not below 90%.
Consider `CCCCc1ccc(-c2ccc3c(c2)CCN(CC(=O)N2CCN(C(C)C)CC2)C3)cc1` [Compound 454, 6-(4-butylphenyl)-2-[2-(4-isopropylpiperazin-1-yl)-2-oxoethyl]-1,2,3,4-tetrahydroisoquinoline], for which the inhibition at 4 µM is not below 90%.
On the same count and under the same terms, with `O=C(CN1CCc2cc(-c3ccc4ccccc4c3)ccc2C1)N1CCN(C2CCCCC2)CC1` [Compound 418, 2-[2-(4-cyclohexylpiperazin-1-yl)-2-oxoethyl]-6-(2-naphthyl)-1,2,3,4-tetrahydroisoquinoline] the figure was not below 90%.
Same read-out and setting: the same measure for `CCc1ccc(-c2ccc3c(c2)CCN(CC(=O)N2CCN(C4CCCCC4)CC2)C3)cc1` [Compound 461, 2-[2-(4-cyclohexylpiperazin-1-yl)-2-oxoethyl]-6-(4-ethylphenyl)-1,2,3,4-tetrahydroisoquinoline]: not below 90%.
Still for that read-out and setting: the same measure for `CC(C)c1ccc(-c2ccc3c(c2)CCN(CC(=O)N2CCN(C4CCC4)CC2)C3)cc1` [Compound 443, 2-[2-(4-cyclobutylpiperazin-1-yl)-2-oxoethyl]-6-(4-isopropylphenyl)-1,2,3,4-tetrahydroisoquinoline]: not below 90%; for `O=C(CN1CCc2cc(-c3cccc(F)c3)ccc2C1)N1CCN(C2CCCCC2)CC1` [Compound 412, 2-[2-(4-cyclohexylpiperazin-1-yl)-2-oxoethyl]-6-(3-fluorophenyl)-1,2,3,4-tetrahydroisoquinoline]: not below 90%; for `CCCc1ccc(-c2ccc3c(c2)CCN(CC(=O)N2CCN(C(C)C)CC2)C3)cc1` [Compound 466, 2-[2-(4-isopropylpiperazin-1-yl)-2-oxoethyl]-6-(4-propylphenyl)-1,2,3,4-tetrahydroisoquinoline]: not below 90%.
With `CCc1cccc(-c2ccc3c(c2)CCN(CC(=O)N2CCN(C(C)C)CC2)C3)c1` [Compound 470, 6-(3-ethylphenyl)-2-[2-(4-isopropylpiperazin-1-yl)-2-oxoethyl]-1,2,3,4-tetrahydroisoquinoline], the inhibition at 4 µM is not below 90%.

Still in this assay, the particulars now being: Table II "Ki", symbol †, 4 μM of the compound, 1 μM histamine, read-out: percent inhibition of the signal obtained with 1 μM histamine.
Take `COc1ccc(OC)c(-c2ccc3c(c2)CCN(CC(=O)N2CCN(C(C)C)CC2)C3)c1` [Compound 562, 6-(2,5-dimethoxyphenyl)-2-[2-(4-isopropylpiperazin-1-yl)-2-oxoethyl]-1,2,3,4-tetrahydroisoquinoline]: the inhibition at 4 µM was not below 90%.
For `O=C(CN1CCc2cc(-c3ccc(Cl)c(F)c3)ccc2C1)N1CCN(C2CCCCC2)CC1` [Compound 593, 6-(4-chloro-3-fluorophenyl)-2-[2-(4-cyclohexylpiperazin-1-yl)-2-oxoethyl]-1,2,3,4-tetrahydroisoquinoline], the inhibition at 4 µM is not below 90%.
As for `CCOc1ccccc1-c1ccc2c(c1)CCN(CC(=O)N1CCN(C3CCC3)CC1)C2` [Compound 566, 2-[2-(4-cyclobutylpiperazin-1-yl)-2-oxoethyl]-6-(2-ethoxyphenyl)-1,2,3,4-tetrahydroisoquinoline], the inhibition at 4 µM is not below 90%.
Take `O=C(CN1CCc2cc(-c3ccc(F)c(F)c3)ccc2C1)N1CCN(C2CCC2)CC1` [Compound 589, 2-[2-(4-cyclobutylpiperazin-1-yl)-2-oxoethyl]-6-(3,4-difluorophenyl)-1,2,3,4-tetrahydroisoquinoline]: the inhibition at 4 µM was not below 90%.
On the same count and under the same terms, with `CSc1cccc(-c2ccc3c(c2)CCN(CC(=O)N2CCN(C4CCCC4)CC2)C3)c1` [Compound 495, 2-[2-(4-cyclopentylpiperazin-1-yl)-2-oxoethyl]-6-[3-(methylthio)phenyl]-1,2,3,4-tetrahydroisoquinoline] the figure was not below 90%; with `CC(C)C(C)N1C[C@@H]2C[C@H]1CN2C(=O)CN1CCc2cc(-c3cncnc3)ccc2C1` (stereo in doubt) [Compound 608, 2-{2-[(1S,4S)-5-(1,2-dimethylpropyl)-2,5-diazabicyclo[2.2.1]hept-2-yl]-2-oxoethyl}-6-pyrimidin-5-yl-1,2,3,4-tetrahydroisoquinoline], not below 90%.
On the same count and under the same terms, the same measure for `COc1ccc(F)cc1-c1ccc2c(c1)CCN(CC(=O)N1CCN(C3CCCC3)CC1)C2` [Compound 571, 2-[2-(4-cyclopentylpiperazin-1-yl)-2-oxoethyl]-6-(5-fluoro-2-methoxyphenyl)-1,2,3,4-tetrahydroisoquinoline]: not below 90%; for `CCOc1cccc(-c2ccc3c(c2)CCN(CC(=O)N2CCN(C4CCCCC4)CC2)C3)c1` [Compound 484, 2-[2-(4-cyclohexylpiperazin-1-yl)-2-oxoethyl]-6-(3-ethoxyphenyl)-1,2,3,4-tetrahydroisoquinoline]: not below 90%.
Still for that read-out and setting: the same measure for `O=C(CN1CCc2cc(-c3cccc(OC(F)(F)F)c3)ccc2C1)N1CCN(C2CCCCC2)CC1` [Compound 492, 2-[2-(4-cyclohexylpiperazin-1-yl)-2-oxoethyl]-6-[3-(trifluoromethoxy)phenyl]-1,2,3,4-tetrahydroisoquinoline]: not below 90%; for `COc1ccc(C)cc1-c1ccc2c(c1)CCN(CC(=O)N1CCN(C3CCCC3)CC1)C2` [Compound 573, 2-[2-(4-cyclopentylpiperazin-1-yl)-2-oxoethyl]-6-(2-methoxy-5-methylphenyl)-1,2,3,4-tetrahydroisoquinoline]: not below 90%; for `O=C(CN1CCc2cc(-c3cccc(F)c3F)ccc2C1)N1CCN(C2CCCCC2)CC1` [Compound 601, 2-[2-(4-cyclohexylpiperazin-1-yl)-2-oxoethyl]-6-(2,3-difluorophenyl)-1,2,3,4-tetrahydroisoquinoline]: not below 90%.
In the case of `CC(C)OCCNc1ccc2c(n1)CCN(CC(=O)N1CCN(C3CCC3)CC1)C2` [Compound 668, 6-[2-(4-cyclobutylpiperazin-1-yl)-2-oxoethyl]-N-(2-isopropoxyethyl)-5,6,7,8-tetrahydro-1,6-naphthyridin-2-amine], the inhibition at 4 µM is not below 90%.
Same read-out and setting: the same measure for `CCC(C)N1CCN(C(=O)CN2CCc3cc(-c4cncnc4)ccc3C2)C[C@H]1C` (stereo partly drawn) [Compound 606, 2-{2-[(3R)-4-sec-butyl-3-methylpiperazin-1-yl]-2-oxoethyl}-6-pyrimidin-5-yl-1,2,3,4-tetrahydroisoquinoline]: not below 90%; for `COc1cc(-c2ccc3c(c2)CCN(CC(=O)N2CCN(C4CCCCC4)CC2)C3)cc(OC)c1OC` [Compound 518, 2-[2-(4-cyclohexylpiperazin-1-yl)-2-oxoethyl]-6-(3,4,5-trimethoxyphenyl)-1,2,3,4-tetrahydroisoquinoline]: not below 90%.
Consider `COc1ccccc1-c1ccc2c(c1)CCN(CC(=O)N1CCN(C3CCCCC3)CC1)C2` [Compound 553, 2-[2-(4-cyclohexylpiperazin-1-yl)-2-oxoethyl]-6-(2-methoxyphenyl)-1,2,3,4-tetrahydroisoquinoline], for which the inhibition at 4 µM was not below 90%.
The same measure, in the same setting: the same measure for `COc1ccc(-c2ccc3c(c2)CCN(CC(=O)N2CCN(C4CCCC4)CC2)C3)c(OC)c1` [Compound 564, 2-[2-(4-cyclopentylpiperazin-1-yl)-2-oxoethyl]-6-(2,4-dimethoxyphenyl)-1,2,3,4-tetrahydroisoquinoline]: not below 90%; for `O=C(CN1CCc2cc(-c3cc(F)cc(F)c3)ccc2C1)N1CCN(C2CCC2)CC1` [Compound 596, 2-[2-(4-cyclobutylpiperazin-1-yl)-2-oxoethyl]-6-(3,5-difluorophenyl)-1,2,3,4-tetrahydroisoquinoline]: not below 90%.

One may read the inhibition as the share of the control response that was lost under treatment.
